Key:
Format in all cases: cell-based
[1] = Cell cytotoxicity 50 assay (CC50), MB200 cells, cell titer glo; conditions: human
Summary of the method: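 MB200 cells were seeded at 10 k/well in F10 medium with bFGF, 15% FBS and dexamethasone. Cells were exposed to serially diluted compound (from 10 mM stock) in triplicate for 72 h at 37 °C. Viability was read by CellTiter-Glo luminescence and CC50 was fitted.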

[2] = system: MBD3L2 RNA; assay: RNA isolation and qPCR to determine MBD3L2 RNA levels in FSHD cells; conditions: 48 hrs
Summary of the method: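 FSHD cells were treated one day after seeding with a DUX4 inhibitor (11 μM or 3.6 μM) for 48 h. Total RNA was DNase-treated and reverse-transcribed with random hexamers and M-MLV. MBD3L2 was quantified by SYBR Green qPCR in triplicate against EEF1A as the reference gene.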

[3] = Cell cytotoxicity 50 assay (CC50), HEK cells; conditions: human
Summary of the method: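 Starting from a 10 mM drug solution, serial dilutions were made in medium and added onto HEK cells, which were then incubated 72 h at 37 °C. Viability was read as CellTiter-Glo luminescence after 5 min, and CC50 was obtained by curve fitting.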

Compound	CC50 at 72 h [1]	qPCR MBD3L2 Inhib at 11 µM [2]	CC50 at 72 h [3]
O=C(CCCN1C(=O)CCC1=O)NC1CCC(Cc2nc3ccccc3s2)C1 (centres unmarked) [Compound 158]	> 10 µM	YES	> 10 µM
CC(=O)CCCCC(=O)Nc1ccc(-c2nccs2)cc1 [Compound 23]	> 10 µM	YES	> 10 µM
CC(=O)NCCCC(=O)Nc1nc2ccccc2s1 [Compound 107]	> 10 µM	YES	> 10 µM
CC(=O)NCCCC(=O)N[C@H]1CC[C@H](Cc2nc3ccccc3s2)CC1 [Compound 172]	> 10 µM	YES	> 10 µM
CC(=O)NCCCNC(=O)c1cc(C#N)cc(-c2nc3cc(F)ccc3s2)c1 [Compound 188]	> 10 µM	YES	> 10 µM
O=C(CCCN1C(=O)CCC1=O)N[C@H]1CC[C@H](c2nc3ccccc3s2)C1 [Compound 161]		YES	
O=C(Cc1ccc(-c2nc3ccccc3s2)cc1)NCCN1CCCC1=O [Compound 119]	> 10 µM	YES	> 10 µM
CC(=O)NCCCC(=O)N[C@@H]1CC[C@H](c2nc3ccccc3s2)C1 [Compound 114]	> 10 µM	YES	> 10 µM
CC(=O)NCCCC(=O)Nc1cc(C)cc(-c2nc3ccccc3s2)c1 [Compound 72]	> 10 µM	YES	> 10 µM
CC(=O)NCCCNC(=O)C12CCC(c3nc4ccccc4s3)(CC1)CC2 [Compound 173]	> 10 µM	YES	> 10 µM
CC(=O)NCCCC(=O)N[C@H]1C[C@H](c2nc3ccccc3s2)C1 [Compound 112]	> 10 µM	YES	> 10 µM
O=C(CCCN1CCCC1=O)NC1CCCC1c1nc2ccccc2s1 (centres unmarked) [Compound 117]	> 10 µM	YES	> 10 µM
CC(=O)NCCCC(=O)Nc1cc(Cl)cc(-c2nc3ccccc3s2)c1 [Compound 101]	> 10 µM	YES	> 10 µM
CC(=O)NC1CCC(C(=O)N[C@H]2CC[C@H](c3nc4ccccc4s3)CC2)C1 (some centres unmarked) [Compound 134]	> 10 µM	YES	> 10 µM
CC(=O)NCCCC(=O)N[C@H]1CC[C@@H](Cc2nc3ccccc3s2)CC1 [Compound 171]	> 10 µM	YES	> 10 µM
O=C(CCCCN1C(=O)CCC1=O)N[C@H]1CC[C@@H](c2nc3ccccc3s2)CC1 [Compound 151]	> 10 µM	YES	> 10 µM
CC(=O)NCCCC(=O)N[C@H]1CC[C@H](c2nc3ccccc3s2)C1 [Compound 115]	> 10 µM	YES	> 10 µM
CC(=O)N[C@@H]1CC[C@H](C(=O)Nc2nc3ccccc3s2)C1 [Compound 182]	> 10 µM	YES	> 10 µM
CC(=O)NCCCNC(=O)c1ccc(-c2nc3ccccc3s2)o1 [Compound 149]	> 10 µM	YES	> 10 µM
O=C(CCCN1C(=O)CCC1=O)NC1CCCC1c1nc2ccccc2s1 (centres unmarked) [Compound 92]	> 10 µM	YES	> 10 µM
O=C(CCN1CCCC1=O)Nc1ccc(Cc2nc3ccccc3s2)cc1 [Compound 8]	> 10 µM	YES	> 10 µM
O=C(CCC1CCC(=O)N1)Nc1ccc(-c2nc3ccccc3s2)o1 (centres unmarked) [Compound 179]	> 10 µM	YES	> 10 µM
O=C(NCCN1C(=O)CCC1=O)c1ccc(-c2nc3ccccc3s2)cc1 [Compound 22]	> 10 µM	YES	> 10 µM
O=C(CCCc1cccnc1)N[C@H]1CC[C@H](c2nc3ccccc3s2)CC1 [Compound 164]	> 10 µM	YES	> 10 µM
CC(C)(NC(=O)CCCN1CCCC1=O)c1ccc(-c2nc3ccccc3s2)cc1 [Compound 110]	> 10 µM	YES	> 10 µM
CC(=O)N[C@@H]1CC[C@@H](C(=O)Nc2nc3ccccc3s2)C1 [Compound 185]	> 10 µM	YES	> 10 µM
O=C(CCCc1cccnc1)NC1CCC(c2nc3ccccc3s2)C1 (centres unmarked) [Compound 157]	> 10 µM	YES	> 10 µM

Compound	CC50 at 72 h [1]	qPCR MBD3L2 Inhib at 11 µM [2]	CC50 at 72 h [3]
CC(=O)NCCCc1nc(CCCC(=O)Nc2ccc(-c3nc4cc(F)ccc4s3)cc2)co1 [Compound 138]	> 10 µM	YES	1 to 10 µM
O=C(CCCN1C(=O)CCC1=O)NC1CC(c2nc3ccccc3s2)C1 (centres unmarked) [Compound 89]	> 10 µM	YES	> 10 µM
CC(=O)NCCCC(=O)Nc1cc(Cl)cc(-c2nc3cc(F)ccc3s2)c1 [Compound 102]	> 10 µM	YES	> 10 µM
CC(=O)NCCCC(=O)NCCCc1nc2ccccc2s1 [Compound 106]	> 10 µM	YES	> 10 µM
CC(=O)N[C@H]1CC[C@@H](C(=O)Nc2nc3ccccc3s2)C1 [Compound 183]	> 10 µM	YES	> 10 µM
CC(=O)NCCCC(=O)NC1CCC(c2nc3ccccc3s2)CC1 (centres unmarked) [Compound 28]	> 10 µM	YES	> 10 µM
CN(C(=O)CCC1CCC(=O)N1)c1ccc(-c2nc3ccccc3s2)cc1 (centres unmarked) [Compound 177]	> 10 µM	YES	> 10 µM
O=C(CCCN1C(=O)CCC1=O)NCCCc1nc2ccccc2s1 [Compound 91]	> 10 µM	YES	> 10 µM
CC(=O)NCCCC(=O)N[C@H]1C[C@@H](c2nc3ccccc3s2)C1 [Compound 113]	> 10 µM	YES	> 10 µM
O=C(CCCc1cccnc1)N[C@H]1CC[C@@H](c2nc3ccccc3s2)CC1 [Compound 163]	> 10 µM	YES	> 10 µM
CC(=O)NCCCC(=O)Nc1ccc(-c2nccs2)cc1 [Compound 70]	> 10 µM	YES	> 10 µM
O=C(CCCN1C(=O)CCC1=O)Nc1nc2ccccc2s1 [Compound 108]		YES	
C=C(C)NCCC(=C)Nc1cc(C)cc(Cc2nc3ccccc3s2)c1 [Compound 120]	> 10 µM	YES	> 10 µM
O=C(CCCN1CCCC1=O)NCCCc1nc2ccccc2s1 [Compound 118]	> 10 µM	YES	> 10 µM
CC(=O)NCCCC(=O)Nc1cccc(-c2nc3ccccc3s2)c1 [Compound 71]	> 10 µM	YES	> 10 µM
CN(C(=O)CCCN1C(=O)CCC1=O)c1ccc(-c2nc3cc(F)ccc3s2)cc1 [Compound 144]	> 10 µM	YES	> 10 µM
O=C(NCCc1cncnc1)c1ccc(-c2nc3ccccc3s2)cc1 [Compound 11]	> 10 µM	YES	> 10 µM
O=C(CCCN1C(=O)CCC1=O)N[C@@H]1CC[C@@H](c2nc3ccccc3s2)C1 [Compound 162]	> 10 µM	YES	> 10 µM
O=C(CCCc1cnco1)Nc1ccc(Cc2nc3ccccc3s2)cc1 [Compound 66]	> 10 µM	YES	> 10 µM
CC(=O)NC1CCC(C(=O)Nc2nc3ccccc3s2)C1 (centres unmarked) [Compound 131]	> 10 µM	YES	> 10 µM
CC(=O)NCCCC(=O)Nc1nc(-c2ccccc2)cs1 [Compound 126]	> 10 µM	YES	> 10 µM
O=C(CCCN1C(=O)CCC1=O)N[C@H]1C[C@@H](c2nc3ccccc3s2)C1 [Compound 97]	> 10 µM	YES	> 10 µM
O=C(NCCCN1C(=O)CCC1=O)c1ccc(-c2nc3ccccc3s2)cc1 [Compound 7]	> 10 µM	YES	> 10 µM
CN(C(=O)CCCN1C(=O)CCC1=O)c1ccc(Cc2nc3ccccc3s2)cc1 [Compound 169]	> 10 µM	YES	> 10 µM
O=C(CCC1CCC(=O)N1)Nc1ccc(Cc2nc3ccccc3s2)cc1 (centres unmarked) [Compound 178]	> 10 µM	YES	> 10 µM
O=C(CCCN1C(=O)CCC1=O)NC1CCC(c2nc3ccccc3s2)C1 (centres unmarked) [Compound 90]	> 10 µM	YES	> 10 µM

Reference: patent publication US20250313555A1, “2-SUBSTITUTED THIAZOLE AND BENZOTHIAZOLE COMPOSITIONS AND METHODS AS DUX4 INHIBITORS” (ALTAY THERAPEUTICS, INC., priority 2022, published 2025)
